{"source": "patent US20260224716A1", "about": "“PTH ANALOGS FOR THE TREATMENT OF HYPOPARATHYROIDISM” (priority 2020, published 2026)", "key": {"[1]": {"assay": "Pharmacokinetics of A8 PTH prodrugs in monkeys, single subcutaneous dose (Example 8)", "type": "in vivo, cynomolgus monkeys", "conditions": "single SC dose 25 nmol/kg, FIGS. 7A, 7B", "protocol": "The pharmacokinetic profile of PTH analogues following a single subcutaneous dose to cynomolgus monkeys and an evaluation of the pharmacodynamic response of serum calcium and phosphorus was investigated. A total of six monkey were used in this test 2 males and 4 females ranging in age from 2-4 years old at beginning of the study and having a weight of at least 2.5 kg.\nAnimals were assigned to groups as noted in the Table 6 below. Animals were dosed by subcutaneous injection. Dose administration was staggered. The Group 1\nmale was dosed once, and the remaining two Group 1 females and all Group 2 animals were dosed once, approximately four days later. First day of dosing was designated as Study Day (SD) 1 for each animal. The dose volume was 0.3 mL/kg. Individual dose volumes were calculated based on the animals' most recently recorded body weight. […]\nPharmacokinetic mean concentration-time data was analyzed using non-compartmental methods (Phoenix® WinNonlin® Version 7.0 or higher) based on the route of administration. The following parameters were calculated whenever possible and as data allows: Cmax, Tmax, and AUC. […]\nResults from these pharmacokinetic (PK) studies are provided in FIGS. 7A and 7B wherein the concentration of the administered prodrug form and its activate drug form (produced after in vivo non-enzymatic cleavage of the dipeptide prodrug element) were measured over time."}, "[2]": {"assay": "Rate of model dipeptide cleavage from hexapeptide in PBS (HPLC, LC-MS)", "type": "physicochemical", "conditions": "buffer", "protocol": "The solution was incubated at 37° C.\nThe flow rate was 1 ml/min."}}, "note": "*1 amine or outer side, *2 acyl side, *3 side chain or, on linkers, in order; H or OH if unused. Where a SMILES comes first, the peptide text is derived from it. Side-chain parts run from the residue outwards. [ ]: non-standard residue; d: D form. The star is where a group is joined. C18 diacid = O=C(O)CCCCCCCCCCCCCCCCC(=O)*; γGlu = O=C(O)[C@H](CCC(=O)[*:2])N[*:1]; AEEA = NCCOCCOCC(=O)O; Sar = CNCC(=O)O"}
{"smiles": "CC[C@H](C)[C@H](NC(=O)[C@H](CCC(=O)O)NC(=O)[C@H](CO)NC(=O)[C@@H](NC(=O)[C@H](CO)NC(=O)CN(C)C(=O)[C@H](N)CCCCNC(=O)CC[C@H](NC(=O)COCCOCCNC(=O)COCCOCCNC(=O)CC[C@H](NC(=O)CCCCCCCCCCCCCCCCC(=O)O)C(=O)O)C(=O)O)C(C)C)C(=O)N[C@@H](CCC(N)=O)C(=O)N[C@@H](CC(C)C)C(=O)N[C@@H](C)C(=O)N[C@@H](Cc1c[nH]cn1)C(=O)N[C@@H](CC(N)=O)C(=O)N[C@@H](CC(C)C)C(=O)NCC(=O)N[C@@H](CCCCN)C(=O)N[C@@H](Cc1c[nH]cn1)C(=O)N[C@@H](CC(C)C)C(=O)N[C@@H](CC(N)=O)C(=O)N[C@@H](CO)C(=O)N[C@@H](CCSC)C(=O)N[C@@H](CCC(=O)O)C(=O)N[C@@H](CCCNC(=N)N)C(=O)N[C@H](C(=O)N[C@@H](CCC(=O)O)C(=O)N[C@@H](Cc1c[nH]c2ccccc12)C(=O)N[C@@H](CC(C)C)C(=O)N[C@@H](CCCNC(=N)N)C(=O)N[C@@H](CCCCN)C(=O)N[C@@H](CCCCN)C(=O)N[C@@H](CC(C)C)C(=O)N[C@@H](CCC(N)=O)C(=O)N[C@@H](CC(=O)O)C(=O)N[C@H](C(=O)N[C@@H](Cc1c[nH]cn1)C(=O)N[C@@H](CCCCNC(=O)CC[C@H](NC(=O)COCCOCCNC(=O)COCCOCCNC(=O)CC[C@H](NC(=O)CCCCCCCCCCCCCCCCC(=O)O)C(=O)O)C(=O)O)C(=O)O)C(C)C)C(C)C", "note": "[SEQ ID NO: 95] (H-[dK]([γGlu-AEEA-AEEA-γGlu-C18 diacid])[Sar]SVSEIQLAHNLGKHLNSMERVEWLRKKLQDVHK([γGlu-AEEA-AEEA-γGlu-C18 diacid])-OH)", "values": [{"measurement": "plasma concentration versus singly fatty acylated prodrug SEQ ID: 94", "setting": "[1]", "result": "higher concentration that is sustained for a longer period"}, {"measurement": "half-life at 1 mg/ml", "setting": "[2]", "result": "> 20.8", "unit": "days"}]}
